Values quoted from earlier work as cited in US11980189B2, “Agricultural formulations, uses thereof and processes for preparation thereof” (Valent U.S.A. LLC, priority 2020, dated 2024).

COCC(=O)N(c1c(C)cccc1C)C(C)C(=O)OC (stereo not shown) [metalaxyl, Metalaxyl]
partial water solubility: 8,400 parts per million
